Experimental data as given in US9150566B2, “2-(1,2,3-triazol-2-yl)benzamide and 3-(1,2,3-triazol-2-YL)picolinamide derivatives as orexin receptor antagonists” (ACTELION PHARMACEUTICALS LTD., priority 2011, dated 2015).
Read-outs that look alike come from different tables or passages of the source.

Legend:
human orexin-2 receptor = human orexin-2 receptor (Homo sapiens (Human), UniProt O43614); assay: In vitro intracellular calcium measurements (FLIPR), antagonistic activity on orexin-2 receptor; type: cell-based; conditions: read-out: IC50 OX2
Outline: (§1)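 Recombinant CHO lines bearing human OX1 or OX2 receptors received test antagonist 120 min before agonist addition.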

human orexin-1 receptor = human orexin-1 receptor (Homo sapiens (Human), UniProt O43613); assay: In vitro intracellular calcium measurements (FLIPR), antagonistic activity on orexin-1 receptor; type: cell-based
Outline: as §1

[1] = Measurement of brain and systemic concentration after oral administration; type: in vivo; conditions: rat, brain, male wistar rats, oral 100 mg/kg, read-out: brain concentration [B]; for concentration at 3 h: formulated in 100% PEG400, sampled at 3 h; for concentration at 1 h: formulated in 10% PEG400/90% MC0.5%, sampled at 1 h
Experimental: Measurement of Brain and Systemic Concentration after Oral Administration:
In order to assess brain penetration, the concentration of the compound is measured in plasma ([P]), and brain ([B]), sampled 1 h or 3 h (or at different time points) following oral administration (100 mg/kg) to male wistar rats (n=3). The compounds are formulated either in 100% PEG 400 or 10% PEG400/90% MC0.5%. Samples are collected in the same animal at the same time point (+/−5 min). Blood is sampled from the vena cava caudalis into containers with EDTA as anticoagulant and centrifuged to yield plasma. Brain is sampled after cardiac perfusion of 10 mL NaCl 0.9% and homogenized into one volume of cold phosphate buffer (pH 7.4). All samples are extracted with MeOH and analyzed by LC-MS/MS. Concentrations are determined with the help of calibration curves. Inter-individual variations between the three rats were limited. Particular compounds of the present invention tested as described above gave brain concentrations ([B]) as shown in Table 16 below; wherein the compounds of Examples 11-37 and 94 were formulated in 100% PEG400 and sampled at 3 h. All other examples below were formulated in 10% PEG400/90% MC0.5% and sampled at 1 h.

CYP3A4 = CYP3A4 (Homo sapiens (Human), UniProt P08684); assay: CYP3A4 inhibition assay (human liver microsomes, testosterone 6β-hydroxylation); conditions: read-out: CYP3A4 IC50, 40 μM testosterone
[2] = CHO cells expressing human orexin-2 receptor, FLIPR, 3 nM orexin-A agonist, 120 min antagonist incubation, geometric mean if determined several times
[3] = CHO cells expressing human orexin-1 receptor, FLIPR, 3 nM orexin-A agonist, 120 min antagonist incubation, geometric mean if determined several times, read-out: IC50 OX1

CYP3A4, sequence (P08684 whole entry): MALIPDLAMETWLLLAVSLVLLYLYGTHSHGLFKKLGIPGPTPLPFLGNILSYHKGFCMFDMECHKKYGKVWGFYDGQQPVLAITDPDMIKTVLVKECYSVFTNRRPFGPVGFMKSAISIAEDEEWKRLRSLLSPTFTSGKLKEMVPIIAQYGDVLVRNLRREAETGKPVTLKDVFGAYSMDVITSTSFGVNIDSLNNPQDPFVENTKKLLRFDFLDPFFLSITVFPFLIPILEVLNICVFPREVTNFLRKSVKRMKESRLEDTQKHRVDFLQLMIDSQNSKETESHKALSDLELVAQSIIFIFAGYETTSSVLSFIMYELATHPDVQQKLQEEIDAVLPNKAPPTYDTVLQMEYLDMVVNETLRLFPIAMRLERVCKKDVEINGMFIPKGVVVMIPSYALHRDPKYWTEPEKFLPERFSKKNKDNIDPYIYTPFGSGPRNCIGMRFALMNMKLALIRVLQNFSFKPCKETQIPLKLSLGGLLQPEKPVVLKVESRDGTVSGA
human orexin-2 receptor, sequence (O43614 whole entry): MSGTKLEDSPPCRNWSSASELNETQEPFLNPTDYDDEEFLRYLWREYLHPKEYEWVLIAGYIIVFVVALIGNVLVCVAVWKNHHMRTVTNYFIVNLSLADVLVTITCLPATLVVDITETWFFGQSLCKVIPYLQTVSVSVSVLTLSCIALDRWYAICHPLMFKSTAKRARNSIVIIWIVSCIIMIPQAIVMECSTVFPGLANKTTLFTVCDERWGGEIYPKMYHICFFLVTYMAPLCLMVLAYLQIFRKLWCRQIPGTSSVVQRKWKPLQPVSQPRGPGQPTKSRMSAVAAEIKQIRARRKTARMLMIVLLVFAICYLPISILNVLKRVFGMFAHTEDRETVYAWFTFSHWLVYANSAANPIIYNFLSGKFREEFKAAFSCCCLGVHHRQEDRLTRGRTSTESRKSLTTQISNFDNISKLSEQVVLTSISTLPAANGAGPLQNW
human orexin-1 receptor, sequence (O43613 whole entry): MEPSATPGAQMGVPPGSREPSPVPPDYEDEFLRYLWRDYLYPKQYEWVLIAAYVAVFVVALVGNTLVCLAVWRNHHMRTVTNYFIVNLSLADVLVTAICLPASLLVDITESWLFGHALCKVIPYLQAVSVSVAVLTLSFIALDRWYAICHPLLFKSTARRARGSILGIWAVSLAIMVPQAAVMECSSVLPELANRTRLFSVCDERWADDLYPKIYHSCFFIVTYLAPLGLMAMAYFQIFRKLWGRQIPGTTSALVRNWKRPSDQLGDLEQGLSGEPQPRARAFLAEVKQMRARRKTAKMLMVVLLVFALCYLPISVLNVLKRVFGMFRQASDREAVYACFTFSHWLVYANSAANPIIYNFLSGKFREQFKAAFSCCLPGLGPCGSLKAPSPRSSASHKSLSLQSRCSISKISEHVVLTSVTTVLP

For Cc1ccc(-n2nccn2)c(C(=O)N2CCOC[C@H]2Cc2cccc(-n3nccn3)c2)c1 [Example 11, (5-Methyl-2-[1,2,3]triazol-2-yl-phenyl)-[(R)-3-(3-[1,2,3]triazol-2-yl-benzyl)-morpholin-4-yl]-methanone], the IC50 (human orexin-2 receptor) was 196 nM, the IC50 (human orexin-1 receptor; read-out: IC50 OX1) was 2 nM and the concentration at 3 h [1] was 46 ng/g.
With O=C(c1ccccc1-n1nccn1)N1CCOC[C@H]1Cc1cccc(-n2nccn2)c1 [Example 12, [(R)-3-(3-[1,2,3]Triazol-2-yl-benzyl)-morpholin-4-yl]-(2-[1,2,3]triazol-2-yl-phenyl)-methanone] the IC50 (human orexin-2 receptor; [2]) was 1240 nM, the IC50 (human orexin-1 receptor; [3]) was 17 nM and the IC50 (CYP3A4) was 30000 nM. The concentration at 3 h [1] was 11900 ng/g.
Compound O=C(c1ccccc1-n1nccn1)N1CCOC[C@H]1Cc1cccc(-n2cccn2)c1 [Example 16, [(R)-3-(3-Pyrazol-1-yl-benzyl)-morpholin-4-yl]-(2-[1,2,3]triazol-2-yl-phenyl)-methanone] has an IC50 (human orexin-2 receptor; [2]) of 1820 nM, an IC50 (human orexin-1 receptor; [3]) of 30 nM and an IC50 (CYP3A4) of 43000 nM. The concentration at 3 h [1] was 160 ng/g.
In the case of Cc1ccc(-n2nccn2)c(C(=O)N2CCOC[C@H]2Cc2cccc(-n3cccn3)c2)c1F [Example 21, (2-Fluoro-3-methyl-6-[1,2,3]triazol-2-yl-phenyl)-[(R)-3-(3-pyrazol-1-yl-benzyl)-morpholin-4-yl]-methanone], the IC50 (human orexin-2 receptor; [2]) is reported as 1650 nM, the IC50 (human orexin-1 receptor; [3]) is reported as 2 nM and the IC50 (CYP3A4) is reported as 20000 nM. It also gave a concentration at 3 h [1] of 36 ng/g.
For Cc1ccc(C(=O)N2CCOC[C@H]2Cc2cccc(-n3nccn3)c2)c(-n2nccn2)c1 [Example 27, (4-Methyl-2-[1,2,3]triazol-2-yl-phenyl)-[(R)-3-(3-[1,2,3]triazol-2-yl-benzyl)-morpholin-4-yl]-methanone], the IC50 (human orexin-2 receptor) was 274 nM, the IC50 (human orexin-1 receptor; read-out: IC50 OX1) was 2 nM and the IC50 (CYP3A4) was 31000 nM. It also gave a concentration at 3 h [1] of 5500 ng/g.
Cc1ccc(-n2nccn2)c(C(=O)N2CCOC[C@H]2Cc2cccc(-n3nccn3)c2)c1F [Example 29, (2-Fluoro-3-methyl-6-[1,2,3]triazol-2-yl-phenyl)-[(R)-3-(3-[1,2,3]triazol-2-yl-benzyl)-morpholin-4-yl]-methanone] showed an IC50 (human orexin-2 receptor; [2]) of 333 nM, an IC50 (human orexin-1 receptor; [3]) of 4 nM and an IC50 (CYP3A4) of 39000 nM. It also gave a concentration at 3 h [1] of 423 ng/g.
Work on O=C(c1cc(Cl)ccc1-n1nccn1)N1CCOC[C@H]1Cc1cccc(-n2nccn2)c1 [Example 30, (5-Chloro-2-[1,2,3]triazol-2-yl-phenyl)-[(R)-3-(3-[1,2,3]triazol-2-yl-benzyl)-morpholin-4-yl]-methanone] yielded an IC50 (human orexin-2 receptor; [2]) of 199 nM, an IC50 (human orexin-1 receptor; [3]) of 4 nM and an IC50 (CYP3A4) of 17000 nM. The concentration at 3 h [1] was 1870 ng/g.
Cc1cc(C(=O)N2CCOC[C@H]2Cc2cccc(-n3nccn3)c2)c(-n2nccn2)cc1C [Example 35, (4,5-Dimethyl-2-[1,2,3]triazol-2-yl-phenyl)-[(R)-3-(3-[1,2,3]triazol-2-yl-benzyl)-morpholin-4-yl]-methanone] gave an IC50 (human orexin-2 receptor; [2]) of 25 nM, an IC50 (human orexin-1 receptor; [3]) of 1 nM and an IC50 (CYP3A4) of 20000 nM. It also gave a concentration at 3 h [1] of 59 ng/g.
In the case of COc1cc(C(=O)N2CCOC[C@H]2Cc2cccc(-n3nccn3)c2)c(-n2nccn2)cc1C [Example 37, (5-Methoxy-4-methyl-2-[1,2,3]triazol-2-yl-phenyl)-[(R)-3-(3-[1,2,3]triazol-2-yl-benzyl)-morpholin-4-yl]-methanone], the IC50 (human orexin-2 receptor; [2]) is reported as 209 nM, the IC50 (human orexin-1 receptor; [3]) is reported as 4 nM and the IC50 (CYP3A4) is reported as 17000 nM. For the same compound, the concentration at 3 h [1] was 881 ng/g.
Cc1ccc(C(=O)N2CCOC[C@H]2Cc2cc(-n3nccn3)ccc2F)c(-n2nccn2)c1 [Example 62, [(R)-3-(2-Fluoro-5-[1,2,3]triazol-2-yl-benzyl)-morpholin-4-yl]-(4-methyl-2-[1,2,3]triazol-2-yl-phenyl)-methanone] gave an IC50 (human orexin-2 receptor; [2]) of 404 nM, an IC50 (CYP3A4) of 29000 nM and a concentration at 1 h [1] of 4420 ng/g.
Cc1cccc(C(=O)N2CCOC[C@H]2Cc2cccc(-n3nccn3)c2)c1-n1nccn1 [Example 64, (3-Methyl-2-[1,2,3]triazol-2-yl-phenyl)-[(R)-3-(3-[1,2,3]triazol-2-yl-benzyl)-morpholin-4-yl]-methanone] gave an IC50 (human orexin-2 receptor; [2]) of 784 nM, an IC50 (human orexin-1 receptor) of 6 nM and an IC50 (CYP3A4) of 33000 nM. For the same compound, the concentration at 1 h [1] was 2370 ng/g.
For O=C(c1ccc(C(F)(F)F)cc1-n1nccn1)N1CCOC[C@H]1Cc1cccc(-n2nccn2)c1 [Example 76, [(R)-3-(3-[1,2,3]Triazol-2-yl-benzyl)-morpholin-4-yl]-(2-[1,2,3]triazol-2-yl-4-trifluoromethyl-phenyl)-methanone], the IC50 (human orexin-2 receptor; [2]) was 133 nM, the IC50 (human orexin-1 receptor; [3]) was 2 nM and the IC50 (CYP3A4) was 7500 nM. It also gave a concentration at 1 h [1] of 1380 ng/g.
With O=C(c1ccc(Cl)cc1-n1nccn1)N1CCOC[C@H]1Cc1cccc(-n2nccn2)c1 [Example 77, (4-Chloro-2-[1,2,3]triazol-2-yl-phenyl)-[(R)-3-(3-[1,2,3]triazol-2-yl-benzyl)-morpholin-4-yl]-methanone] the IC50 (human orexin-2 receptor; [2]) was 96 nM, the IC50 (human orexin-1 receptor; [3]) was 1 nM and the IC50 (CYP3A4) was 16000 nM. For the same compound, the concentration at 1 h [1] was 1610 ng/g.
For O=C(c1ccc(C(F)(F)F)cc1-n1nccn1)N1CCOC[C@H]1Cc1cccc(-c2ncon2)c1 [Example 87, [(R)-3-(3-[1,2,4]Oxadiazol-3-yl-benzyl)-morpholin-4-yl]-(2-[1,2,3]triazol-2-yl-4-trifluoromethyl-phenyl)-methanone], the IC50 (human orexin-2 receptor; [2]) was 227 nM, the IC50 (CYP3A4) was 15000 nM and the concentration at 1 h [1] was 1880 ng/g.
Cc1ccc(C(=O)N2CCOC[C@H]2Cc2cccc(-n3nccn3)c2)c(-n2nccn2)c1C [Example 92, (3,4-Dimethyl-2-[1,2,3]triazol-2-yl-phenyl)-[(R)-3-(3-[1,2,3]triazol-2-yl-benzyl)-morpholin-4-yl]-methanone] showed an IC50 (human orexin-2 receptor) of 2630 nM, an IC50 (human orexin-1 receptor; read-out: IC50 OX1) of 3 nM and an IC50 (CYP3A4) of 44000 nM. It also gave a concentration at 1 h [1] of 1970 ng/g.
Compound Cc1ccc(C(=O)N2CCOC[C@H]2Cc2cc(-c3ncccn3)ccc2F)c(-n2nccn2)c1 [Example 156, [(R)-3-(2-Fluoro-5-pyrimidin-2-yl-benzyl)-morpholin-4-yl]-(4-methyl-2-[1,2,3]triazol-2-yl-phenyl)-methanone] has an IC50 (human orexin-2 receptor; [2]) of 571 nM, an IC50 (CYP3A4) greater than 50000 nM and a concentration at 1 h [1] of 613 ng/g.
With Cc1ccc(-n2nccn2)cc1C[C@@H]1COCCN1C(=O)c1ccc(Cl)cc1-n1nccn1 [Example 191, (4-Chloro-2-[1,2,3]triazol-2-yl-phenyl)-[(R)-3-(2-methyl-5-[1,2,3]triazol-2-yl-benzyl)-morpholin-4-yl]-methanone] the IC50 (human orexin-2 receptor; [2]) was 1040 nM, the IC50 (human orexin-1 receptor; [3]) was 12 nM and the IC50 (CYP3A4) was 14000 nM.
With Cc1ccc(C[C@@H]2COCCN2C(=O)c2ccccc2-n2nccn2)cc1-c1ncccn1 [Example 192, [(R)-3-(4-Methyl-3-pyrimidin-2-yl-benzyl)-morpholin-4-yl]-(2-[1,2,3]triazol-2-yl-phenyl)-methanone] the IC50 (human orexin-2 receptor; [2]) was 2610 nM, the IC50 (human orexin-1 receptor; [3]) was 16 nM and the IC50 (CYP3A4) was greater than 50000 nM.
Work on Cc1ccc(C[C@@H]2COCCN2C(=O)c2ccccc2-n2nccn2)cc1-c1nccs1 [Example 193, [(R)-3-(4-Methyl-3-thiazol-2-yl-benzyl)-morpholin-4-yl]-(2-[1,2,3]triazol-2-yl-phenyl)-methanone] yielded an IC50 (human orexin-2 receptor; [2]) of 238 nM, an IC50 (human orexin-1 receptor; [3]) of 1 nM and an IC50 (CYP3A4) of 600 nM.
Cc1ccc(-n2nccn2)c(C(=O)N2CCC[C@H]2Cc2cccc(-n3nccn3)c2)c1 [Ref. 2] gave an IC50 (human orexin-2 receptor; [2]) of 8 nM, an IC50 (human orexin-1 receptor; [3]) of 0.5 nM and an IC50 (CYP3A4) of 3300 nM.
Compound O=C(c1ccccc1-n1nccn1)N1CCCC[C@H]1Cc1cccc(-n2nccn2)c1 [Ref. 3] has an IC50 (human orexin-2 receptor; [2]) of 12 nM, an IC50 (human orexin-1 receptor; [3]) of 1 nM and an IC50 (CYP3A4) of 6100 nM.
Work on Cc1ccc(-n2nccn2)c(C(=O)N2CCCC[C@H]2Cc2cccc(-n3nccn3)c2)c1 [Ref. 4] yielded an IC50 (human orexin-2 receptor; [2]) of 2 nM, an IC50 (human orexin-1 receptor; [3]) of 0.3 nM and an IC50 (CYP3A4) of 7700 nM.
